Test results reported in patent US9388202B2, “Luminescent probes for biological labeling and imaging, method for preparing same” (CENTRE NATIONAL DE LA RECHERCHE SCIENTIFIQUE, priority 2011, dated 2016).
Several values for one entry are separate records, joined by “and”; a condition that tells them apart may be missing. Equal entries are not always repeated.

Assays:
Format in all cases: physicochemical
[1] = Emission properties: luminescence lifetime and quantum luminescence yield in water and D2O; settings: for Emission τ (luminescence lifetime): error estimated ±5%; for Emission φ (quantum luminescence yield): error estimated ±15%
From the text: Their optical luminescence properties, the luminescence lifetimes and the brightness properties are exceptional, with quantum yields of about 38% for Tb, 18% for Eu and lifetimes of the excited states of greater than 3 milliseconds for the Tb(I-3) and Tb(I-4) complexes.
By way of example, all of the absorption and emission properties of the terbium and europium complexes synthesized from the ligands (I-1) to (I-4) in accordance with the invention are summarized in Table 1 below:
The parameters φ and τ represent, respectively, the quantum luminescence yields and the luminescence lifetimes. They may be measured in water and in D2O.

[2] = Absorption properties of the terbium and europium complexes in TRIS/HCl buffer; settings: 0.01M TRIS/HCl buffer at pH = 7.0
From the text: By way of example, all of the absorption and emission properties of the terbium and europium complexes synthesized from the ligands (I-1) to (I-4) in accordance with the invention are summarized in Table 1 below: […]

[3] = Stability of terbium complexes (luminescence lifetime) in buffers with ligands capable of decomplexing the lanthanide ions; settings: for stability: various aqueous media
Protocol: By way of example, the stability of the terbium complexes synthesized from the ligands (I-1) to (I-4) in accordance with the invention is given in Table 2 below. Various buffers in the presence of ligands capable of decomplexing the lanthanide ions were tested. For comparative purposes, Table 2 also gives the stability of a terbium complex TbL4 of the prior art corresponding to the following formula: […]

[4] = Tris 50 mM - Serum 50%, pH = 7.0
[5] = Tris 0.1M - EDTA 10 mM, pH = 7.0
[6] = Tris 0.1M - KF 400 mM, pH = 7.0

Row | Compound | Emission τ (luminescence lifetime) ([1]; D2O) [ms] | Emission φ (quantum luminescence yield) ([1]; D2O) [%] | Emission τ (luminescence lifetime) ([1]; H2O) [ms] | Emission φ (quantum luminescence yield) ([1]; H2O) [%] | Absorption λabs [2] | τ ([3]; H2O, estimated error ±5%) [ms] | τ ([3]; Phosphate 0.1M, pH = 7.0) [ms] | τ [3, 4] [ms] | τ [3, 5] [ms] | τ [3, 6] [ms] | τ ([3]; Tris 0.1M, pH = 7.0) [ms] | stability [3]
1 | CCOP(=O)([O-])CN(CC(=O)[O-])Cc1cc(C#Cc2ccc(C(=O)NCCCC(=O)[O-])c3ccccc23)cc(CN(CC(=O)[O-])CP(=O)([O-])OCC)n1.[Eu+3].[Na+].[Na+] [Eu(I-1)] | 2.4 | 24 | 1.5 | 16 | 266 nm and 349 nm | – | – | – | – | – | – | –
2 | CCOP(=O)([O-])CN(CC(=O)[O-])Cc1cc(C#Cc2ccc(C#CCCCCC(=O)[O-])c3ccccc23)cc(CN(CC(=O)[O-])CP(=O)([O-])OCC)n1.[Eu+3].[Na+].[Na+] [Eu(I-2)] | 2.4 | 26 | 1.6 | 17 | 265 nm and 347 nm | – | – | – | – | – | – | –
3 | CCOP(=O)([O-])CN(Cc1cc(C#Cc2ccc(C(=O)NCCCC(=O)[O-])c3ccccc23)cc(CN(CP(=O)([O-])OCC)CP(=O)([O-])OCC)n1)CP(=O)([O-])OCC.[Eu+3].[Na+].[Na+] [Eu(I-3)] | 2.5 | 22 | 1.7 | 18 | 270 nm and 352 nm | – | – | – | – | – | – | –
4 | CCOP(=O)([O-])CN(Cc1cc(C#Cc2ccc(C#CCCCCC(=O)[O-])c3ccccc23)cc(CN(CP(=O)([O-])OCC)CP(=O)([O-])OCC)n1)CP(=O)([O-])OCC.[Eu+3].[Na+].[Na+] [Eu(I-4)] | 2.5 | 24 | 1.6 | 17 | 268 nm and 350 nm | – | – | – | – | – | – | –
5 | CCOP(=O)([O-])CN(CC(=O)[O-])Cc1cc(C#Cc2ccc(C(=O)NCCCC(=O)[O-])c3ccccc23)cc(CN(CC(=O)[O-])CP(=O)([O-])OCC)n1.[Na+].[Na+].[Tb+3] [Tb(I-1)] | 3.1 | 46 | 2.8 | 35 | 268 nm and 348 nm | 2.8 | 2.7 | 2.6 | 2.6 | 2.6 | 2.7 | –
6 | CCOP(=O)([O-])CN(CC(=O)[O-])Cc1cc(C#Cc2ccc(C#CCCCCC(=O)[O-])c3ccccc23)cc(CN(CC(=O)[O-])CP(=O)([O-])OCC)n1.[Na+].[Na+].[Tb+3] [Tb(I-2)] | 3.2 | 45 | 2.6 | 32 | 270 nm and 349 nm | 2.6 | 2.5 | 2.4 | 2.4 | 2.5 | 2.5 | –
7 | CCOP(=O)([O-])CN(Cc1cc(C#Cc2ccc(C(=O)NCCCC(=O)[O-])c3ccccc23)cc(CN(CP(=O)([O-])OCC)CP(=O)([O-])OCC)n1)CP(=O)([O-])OCC.[Na+].[Na+].[Tb+3] [Tb(I-3)] | 3.4 | 42 | 3.1 | 38 | 272 nm and 353 nm | 3.1 | 2.9 | 3.0 | 3.0 | 2.9 | 3.0 | excellent stability
8 | CCOP(=O)([O-])CN(Cc1cc(C#Cc2ccc(C#CCCCCC(=O)[O-])c3ccccc23)cc(CN(CP(=O)([O-])OCC)CP(=O)([O-])OCC)n1)CP(=O)([O-])OCC.[Na+].[Na+].[Tb+3] [Tb(I-4)] | 3.5 | 41 | 3.2 | 36 | 272 nm and 352 nm | 3.2 | 3.0 | 3.0 | 3.1 | 3.0 | 3.1 | excellent stability
